ChEMBL document CHEMBL5724696, “Autophagy assay results for EUbOPEN Chemogenomics Library” (2024)
Several values for one entry are separate records, joined by “and”; a condition that tells them apart may be missing. Equal entries are not always repeated.

Legend:
U2OS [1] = experiment: (§1) Here: values are normalized to the positive (DMSO; basel flux = defined as 100% suppression) and negative (250nM Torin1; mTOR inhibitor; maximal inducer of autophagy defined as 0% suppression) control compounds and represented as % of ER-phagy suppression. […] The impact of autophagy induction on cells is complex and depends on the affected target. […] Of note, treatment concentrations may be sub-optimal for specific compounds, leading to false negative annotations.; assay type: functional, Homo sapiens; conditions: Compound Concentration 1 uM, Culturing Media DMEM, 1 % Penicillin/Streptomycin, 10% Fetal bovin serum Add-On: blasticidin, Screening Media Control DMEM, 10% Fetal bovin serum Add-On: 1 µg/ml Doxycyclin, Screening Media Samples DMEM
U2OS [2] = experiment: as §1; assay type: functional, Homo sapiens; conditions: Compound Concentration 1 uM, Culturing Media DMEM, 1 % Penicillin/Streptomycin, 10% Fetal bovin serum Add-On: blasticidin, Screening Media Control DMEM, 10% Fetal bovin serum Add-On: 1 µg/ml Doxycyclin, Screening Media Samples DMEM; remark: listed apart in the source
[3] = Timepoint 12 hours, 10% Fetal bovin serum Add-On: 1 µg/ml Doxycyclin 250nM Torin1, 12 h, 1 µM
[4] = Timepoint 36 hours, 10% Fetal bovin serum Add-On: 1 µg/ml Doxycyclin 250nM Torin1, 36 h, 1 µM
[5] = Timepoint 12 hours, 10% Fetal bovin serum Add-On: 1 µg/ml Doxycyclin 250nM Torin1
[6] = Timepoint 24 hours, 10% Fetal bovin serum Add-On: 1 µg/ml Doxycyclin 250nM Torin1
[7] = Timepoint 36 hours, 10% Fetal bovin serum Add-On: 1 µg/ml Doxycyclin 250nM Torin1
[8] = Timepoint 60 hours, 10% Fetal bovin serum Add-On: 1 µg/ml Doxycyclin 250nM Torin1
[9] = Timepoint 54 hours, 10% Fetal bovin serum Add-On: 1 µg/ml Doxycyclin 250nM Torin1

With `CNC(=O)c1ccc(Nc2ncc(C(F)(F)F)c(NCc3nccnc3N(C)S(C)(=O)=O)n2)cc1` [DEFACTINIB] the ER-phagy suppression (U2OS [1]; [3]) was -10.5841% and -8.687%, the ER-phagy suppression (U2OS [1]; [4]) was -22.8017% and 1.862% and the ER-phagy suppression (U2OS [1]; Timepoint 60 hours, 10% Fetal bovin serum Add-On: 1 µg/ml Doxycyclin 250nM Torin1, 60 h, 1 µM) was -7.812% and 1.51%. For the same molecule, the ER-phagy suppression (U2OS [2]; [3]) was 6.334% and 17.6982%, the ER-phagy suppression (U2OS [2]; Timepoint 24 hours, 10% Fetal bovin serum Add-On: 1 µg/ml Doxycyclin 250nM Torin1, 24 h, 1 µM) was -6.042% and 9.811% and the ER-phagy suppression (U2OS [2]; [4]) was -8.211% and 10.8271%.
In the case of `CN1CCN(C(=O)C(C)(C)c2ccc(C(=O)Nc3cn4cc(-c5cc(C(C)(C)C)cc(C(C)(C)C)c5)ccc4n3)cc2)CC1` [T3-CLK-N], the ER-phagy suppression (U2OS [1]; [5]) is reported as 2.466%, the ER-phagy suppression (U2OS [1]; [6]) is reported as 0.7117% and the ER-phagy suppression (U2OS [1]; [7]) is reported as -6.9152%. The ER-phagy suppression (U2OS [1]; [8]) was -11.2006%, the ER-phagy suppression (U2OS [2]; [5]) was -1.207% and the ER-phagy suppression (U2OS [2]; [6]) was -16.3306%. The ER-phagy suppression (U2OS [2]; [7]) was -17.7073% and the ER-phagy suppression (U2OS [2]; [9]) was -17.4198%.
`O=C(O)c1ccc2c3c1cccc3c(=O)n1c3ccccc3nc21` showed an ER-phagy suppression (U2OS [1]; [5]) of -11.121%, an ER-phagy suppression (U2OS [1]; [6]) of -24.1866% and an ER-phagy suppression (U2OS [1]; [7]) of -20.6591%. It also gave an ER-phagy suppression (U2OS [1]; [8]) of -29.8702%, an ER-phagy suppression (U2OS [2]; [5]) of -10.0258% and an ER-phagy suppression (U2OS [2]; [6]) of -24.8466%. For the same molecule, the ER-phagy suppression (U2OS [2]; [7]) was -33.5835% and the ER-phagy suppression (U2OS [2]; [9]) was -29.9152%.
In the case of `CN([C@@H](Cc1ccc(OS(=O)(=O)c2cccc3cnccc23)cc1)C(=O)N1CCN(c2ccccc2)CC1)S(=O)(=O)c1cccc2cnccc12`, the ER-phagy suppression (U2OS [1]; [5]) is reported as 11.3745%, the ER-phagy suppression (U2OS [1]; [6]) is reported as -2.8225% and the ER-phagy suppression (U2OS [1]; [7]) is reported as -4.115%. For the same molecule, the ER-phagy suppression (U2OS [1]; [8]) was -4.142%, the ER-phagy suppression (U2OS [2]; [5]) was -1.9452% and the ER-phagy suppression (U2OS [2]; [6]) was -10.891%. The ER-phagy suppression (U2OS [2]; [7]) was -4.8506% and the ER-phagy suppression (U2OS [2]; [9]) was -2.408%.
For `CN(c1ccnc(CNc2nc(Nc3ccc4c(c3)CC(=O)N4)ncc2C(F)(F)F)n1)S(C)(=O)=O` [PF-00911705], the ER-phagy suppression (U2OS [1]; [5]) was 7.113%, the ER-phagy suppression (U2OS [1]; [6]) was 19.7718% and the ER-phagy suppression (U2OS [1]; [7]) was 14.8623%. It also gave an ER-phagy suppression (U2OS [1]; [8]) of 9.977%, an ER-phagy suppression (U2OS [2]; [5]) of 20.0554% and an ER-phagy suppression (U2OS [2]; [6]) of 26.0373%. The ER-phagy suppression (U2OS [2]; [7]) was 39.3297% and the ER-phagy suppression (U2OS [2]; [9]) was 54.466%.
In the case of `O=C(NCc1ccccc1)c1ccc(S(=O)(=O)NCc2ccccc2)cc1`, the ER-phagy suppression (U2OS [1]; [5]) is reported as -6.979%, the ER-phagy suppression (U2OS [1]; [6]) is reported as -12.761% and the ER-phagy suppression (U2OS [1]; [7]) is reported as -1.702%. The ER-phagy suppression (U2OS [1]; [8]) was -8.939%, the ER-phagy suppression (U2OS [2]; [5]) was 3.538% and the ER-phagy suppression (U2OS [2]; [6]) was -5.467%. It also gave an ER-phagy suppression (U2OS [2]; [7]) of -1.304% and an ER-phagy suppression (U2OS [2]; [9]) of 10.3755%.
Work on `Cc1cc(Nc2nccc(C)n2)cc(-c2cnc([C@@]3(O)CC[C@H](C(=O)O)C(C)(C)C3)s2)c1` [MRL-SYKi] yielded an ER-phagy suppression (U2OS [1]; [5]) of -8.621%, an ER-phagy suppression (U2OS [1]; [6]) of -15.4814% and an ER-phagy suppression (U2OS [1]; [7]) of -12.3884%. It also gave an ER-phagy suppression (U2OS [1]; [8]) of -21.2275%, an ER-phagy suppression (U2OS [2]; [5]) of -2.1095% and an ER-phagy suppression (U2OS [2]; [6]) of -20.7857%. The ER-phagy suppression (U2OS [2]; [7]) was -24.9988% and the ER-phagy suppression (U2OS [2]; [9]) was -19.5267%.
For `CNc1nc(-c2ccc3c(N)n[nH]c3c2)cc(N2C[C@@H](C(=O)NC3CCCCC3)CC[C@H]2C)n1`, the ER-phagy suppression (U2OS [1]; [5]) was 0.4494%, the ER-phagy suppression (U2OS [1]; [6]) was -26.9041% and the ER-phagy suppression (U2OS [1]; [7]) was -20.7872%. The ER-phagy suppression (U2OS [1]; [8]) was -21.6855%, the ER-phagy suppression (U2OS [2]; [5]) was -64.3148% and the ER-phagy suppression (U2OS [2]; [6]) was -57.2907%. For the same molecule, the ER-phagy suppression (U2OS [2]; [7]) was -47.7488% and the ER-phagy suppression (U2OS [2]; [9]) was -36.1372%.
With `O=c1cc(N2CCOCC2)oc2c(-c3cccc4c3sc3ccccc34)cccc12` the ER-phagy suppression (U2OS [1]; [5]) was 23.1915%, the ER-phagy suppression (U2OS [1]; [6]) was 21.6983% and the ER-phagy suppression (U2OS [1]; [7]) was 3.92%. It also gave an ER-phagy suppression (U2OS [1]; [8]) of -4.5%, an ER-phagy suppression (U2OS [2]; [5]) of 29.2209% and an ER-phagy suppression (U2OS [2]; [6]) of 24.7237%. It also gave an ER-phagy suppression (U2OS [2]; [7]) of 22.7043% and an ER-phagy suppression (U2OS [2]; [9]) of 31.557%.
